Data on three compounds can be found in patent US20190184364A1, “FRAGRANCE COMPOSITIONS CONTAINING MICROCAPSULES” (INTERNATIONAL FLAVORS & FRAGRANCES INC., priority 2016, published 2019).

Data set [1] is described as follows: Water solubility of core solvents. Format: physicochemical.
For data set [2] the following is noted: cited from earlier work; for δD: Hansen dispersion value; for δH: Hansen h-bonding value; for δP: Hansen polar value.
Another data set concerns insect bites. The following applies: DEET at 100%; cited from earlier work.

Converted amounts (≈) assume the structure as drawn.

The compound `CCCCCCCCCCCCCC(=O)OC(C)C` [isopropyl myristate] showed a solubility in data set [1] below 0.0001 mg/mL. In data set [2], the δD is recorded as 16, the δH is given as 2.7 and the δP is listed as 2.1.

Regarding `CC(=O)OCC(COC(C)=O)OC(C)=O` [triacetin], the solubility in data set [1] worked out at 21.5 mg/mL (≈ 98.6 mM). In data set [2], the δD is listed as 16.4, the δH is 9.6 and the δP is reported as 5.7.

In the case of `CCN(CC)C(=O)c1cccc(C)c1` [DEET, N,N-Diethyl-meta-toluamide], in the data set with insect bites, the “hours of protection against insect bites” value is “up to 12 hours”.
